The values that follow come from PMC10746112, “Synthesis and Pro-Apoptotic Effects of Nitrovinylanthracenes and Related Compounds in Chronic Lymphocytic Leukaemia (CLL) and Burkitt’s Lymphoma (BL)” (Molecules, 2023).

Series [1] relates to MCF-7 human breast cancer cells. Briefly: alamarBlue cell viability assay. The settings on record: MCF7, 72 h. A general note: The colour change of resazurin is a common sign of viable cells or microbes.
In a further series the test system is DG-75 BL cells. In words: Annexin V/PI apoptotic assay (FACS). The series is classed as cell-based. The settings on record: 10 µM, 48 h, total (early + late) apoptosis. As for the experimental part: (§1) The chemotherapeutic drug taxol was used as a positive control. The pro-apoptotic effects of the selected nitrostyrene compounds 11g, 11h, 11i, 11j, 11k and 11l (10 μM) were determined using FITC (fluorescein isothiocyanate), Annexin V/PI (propidium iodide) staining and FACS (fluorescence-activated cell sorting) analysis to characterise the mode of cellular death induced by the synthesised compounds. Four populations were produced in this assay: Annexin-V- and PI-negative (Q4, healthy cells), Annexin-V-positive and PI-negative (Q3, early apoptosis), Annexin-V- and PI-positive (Q2, late apoptosis) and Annexin-V-negative and PI-positive (Q1, necrosis), which were easily identified and quantified. Apoptosis was assessed as % total apoptosis by a combination of early and late apoptosis (Q3 and Q2, respectively). […] The identification of compounds that can induce apoptosis in cancer cells is required in the development of potential lead structures for anticancer drugs.
(§2) The BL cells DG-75 and MUTU-I (750,000) were treated at 37 °C with either vehicle (0.1% (v/v) EtOH), […] taxol (10 μM) and incubated for 24 h (MUTU-1) or 48 h (DG-75). The CLL cells PGA1 and HG3 (1 × 10^6 cells/mL) were treated at 37 °C with either vehicle (1% (v/v) DMSO) or the nitrostyrene compounds 19a (10 μM, 5 μM and 1 μM) and 19g, 19i, 19l and 19m (10 μM and 1 μM) for 48 h. The cells were then harvested by centrifugation at 400× g in a temperature-controlled Sorvall centrifuge and rinsed with 0.5 mL of Ca^2+ Annexin-V-binding buffer (0.1 M HEPES, pH 7.4; 0.14 M NaCl; 25 mM CaCl2). The samples were resuspended in 50 µL FITC Annexin V (diluted 1:33 in Ca^2+ Annexin V-binding buffer), incubated on ice for 10 min (protected from light), washed with Annexin-V-binding buffer and re-suspended in 500 µL of propidium iodide (PI) solution (0.5 µg/mL). The samples were analysed within 1 h using a BD Accuri C6 flow cytometer counting 10,000 cells and analysed using the FlowJo software (FlowJo LLC, Ashland, OR, USA) package.

A further series deals with MUTU-I BL cells. In words: Annexin V/PI apoptotic assay (FACS). The settings on record: 10 µM, 24 h, total (early + late) apoptosis. The series is classed as cell-based. As to the method:
as §1, §2

Series [2] deals with peripheral blood mononuclear cells (PBMCs). Briefly: viability of peripheral blood mononuclear cells. Format: cell-based, human. The settings on record: 24 h, healthy donor PBMCs. As for the experimental part: (§3) The nitrostyrene 11h was evaluated for its cytotoxic effect on healthy donor peripheral blood mononuclear cells (PBMCs) to determine the selective toxicity of compounds containing the nitrostyrene pharmacophore on malignant BL cell lines over normal blood cells. Compound 11h was evaluated at 1 μM and 10 μM concentrations over a 24 h treatment time (Supplementary Information, Table S8).
(§4) Cells were seeded at a density of 2.5 × 10^4 cells/well (MCF-7, MDA-MB-231 cells), 1 × 10^4 cells/well (HL-60 cells), 1–5 × 10^4 cells per well (BL MUTU-I, DG-75 cells) and 2 × 10^5 cells/well [HG-3, PGA-1 (CLL cells)], Ramos, BJAB (BL cells) (200 μL per well), in 96-well plates. Cells were treated with the desired drug concentration for the appropriate time for each cell type, and the samples were incubated as required. alamarBlue (20 μL) was then added to each well and the samples further incubated in the dark at 37 °C for 4 h. Wells containing only reagent and cell culture medium in the absence of cells were used as blank controls. Ethanol was used as a vehicle, and cells were treated with 1% ethanol (v/v) in all experiments. The 96-well plates were analysed on a fluorescence plate reader (SpectraMax Gemini, Molecular Devices) (emission and excitement wavelengths of 590 nm and 544 nm, respectively), and the fluorescence was recorded. The decrease in cell viability was then calculated with reference to the vehicle samples (100% viability). EMEM medium with the addition of alamarBlue was used as a blank. Vehicle-treated cells were considered to be 100% viable, and the viabilities of each compound was calculated accordingly. […] All biochemical assays were performed in triplicate on at least three independent occasions, and the mean values were determined.
(§5) Peripheral blood was obtained from healthy donors (n = 2) after informed consent was received. The blood was then placed into a 50 mL falcon tube and diluted with an equal volume of phosphate-buffered saline (PBS). PBMCs were isolated using density gradient centrifugation using LymphoPrep as described previously Approval for this study was obtained from the School of Pharmacy and Pharmaceutical Sciences Trinity College Dublin Research Ethics Committee (2020-06-01-MS).

The nature of series [3]: viability of peripheral blood mononuclear cells. Format: cell-based, human. The note with it: human, healthy donor PBMCs. As for the experimental part:
as §3, §4, §5

The subject of another series is Bjab BL cell line. In words: alamarBlue cell viability assay. Format: cell-based. The note with it: Homo sapiens, 24 h. As to the method:
as §4

A further series deals with Ramos BL cell line. Briefly: alamarBlue cell viability assay. The series is classed as cell-based. The note with it: Homo sapiens, 24 h. As for the experimental part:
as §4

Series [4] has as its system HeLa cervical cancer cells. In words: alamarBlue cell viability assay. The note with it: Homo sapiens, 24 h.
In series [5] the test system is HL-60 promyelocytic leukaemia cells. In words: alamarBlue cell viability assay. The settings on record: Homo sapiens, HL-60, 24 h.
The test system of series [6] is MUTU-I Burkitt’s lymphoma cell line. The settings on record: nitrostyrenes, 24 h, cited from earlier work.

For the compound `C/C(=C\c1cccc(Cl)c1)[N+](=O)[O-]` [Compound 11h], the viability at 1 µM turned out to be 94.3% in series [1] (read-out: % Viable Cells Remaining MCF-7 72 h 1 µM); 90.1% with Bjab BL cell line (read-out: % Viable Cells Remaining Bjab 24 h 1 µM); 27.2% in the series with Ramos BL cell line (read-out: % Viable Cells Remaining Ramos 24 h 1 µM); 90.6% in series [4] (read-out: % Viable Cells Remaining HeLa 24 h 1 µM); 78.2% in series [5] (read-out: % Viable Cells Remaining HL60 24 h 1 µM). Further, the viability at 10 µM in series [1] (read-out: % Viable Cells Remaining MCF-7 72 h 10 µM) stood at 29.7%; with Bjab BL cell line (read-out: % Viable Cells Remaining Bjab 24 h 10 µM), 46.2%; in the series on Ramos BL cell line (read-out: % Viable Cells Remaining Ramos 24 h 10 µM) it was 5.1%; in series [4] (read-out: % Viable Cells Remaining HeLa 24 h 10 µM), 23.2%; in series [5] (read-out: % Viable Cells Remaining HL60 24 h 10 µM), 6.8%. For the same compound, the “DG-75 Apoptosis (%)” value in the series with DG-75 BL cells worked out at 92.0%. The “MUTU-I Apoptosis (%)” value in the series with MUTU-I BL cells was found to be 82.6%. The PBMCs % viability amounted to 73.66±3.725% in series [2] (1 µM) and 34.08±9.587% in series [2] (10 µM). Besides, the viability at 24 h, 1 µM in series [3] (1 µM) was found to be 74%. The compound further showed a viability at 24 h, 10 µM in [3] (10 µM) of 34.1%. For the same compound, the “% Viable Cells Remaining MUTU-1 24 h 1 µM” value in [6] (1 µM) is recorded as 39.80%. In series [6] (10 µM), the “% Viable Cells Remaining MUTU-1 24 h 10 µM” value was 10.28%.
